{
  "source": "patent US20180125835A1",
  "about": "“Dosage and Use of an A2A Antagonist” (H. Lundbeck A/S, priority 2014, published 2018)",
  "key": {"[1]": {"test_system": "57 counter-screen targets (receptors, ion channels and transporters)", "experiment": "Counter-screen binding panel of CNS targets"}, "A2A receptor [2]": {"molecular_target": "T1, A2A receptor (Rattus norvegicus, UniProt P30543)", "T1 sequence (P30543 whole entry)": "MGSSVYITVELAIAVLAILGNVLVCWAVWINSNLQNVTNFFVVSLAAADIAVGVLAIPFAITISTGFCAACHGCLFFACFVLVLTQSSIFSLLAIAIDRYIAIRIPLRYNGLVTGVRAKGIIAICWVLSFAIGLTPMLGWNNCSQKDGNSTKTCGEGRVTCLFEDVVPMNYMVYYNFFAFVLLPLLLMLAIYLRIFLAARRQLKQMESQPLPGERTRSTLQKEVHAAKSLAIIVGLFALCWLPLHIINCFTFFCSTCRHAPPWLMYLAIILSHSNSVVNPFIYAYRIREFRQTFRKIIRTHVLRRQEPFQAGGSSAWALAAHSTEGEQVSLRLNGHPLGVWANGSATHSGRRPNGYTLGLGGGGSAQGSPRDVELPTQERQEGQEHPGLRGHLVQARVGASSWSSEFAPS", "experiment": "Reversal of CGS21680-induced hypolocomotion", "type": "in vivo", "method": "Doses of 0.01, 0.03, 0.06, 0.1 mg/kg were tested in a dosage form of 0.5 w/v % methyl cellulose 400 (viscosity: 400 cP) in distilled water. Drug was administered at a volume of 5 ml/kg, oral.\nSixty (60) male Long Evans rats, 3 months age, were allocated into 6 groups of N=10 rats per group.\nThe activity test, monitoring the rat's spontaneous activity was measured in the automated\nMed Associates activity test chamber for 20 minutes. The tracking arena was of dimension 17′W×17″L×12″H, sensor bars were secured 1″ above the floor to track distance travelled, and a second set of sensor bars were placed 6″ above the floor to measure vertical movement and rearing activity. The parameters set on the tracking software were: resolution—50 ms, box size—4 beams, resting delay—500 ms, and ambulatory trigger—2."}, "MPTP-lesion marmosets": {"test_system": "MPTP-lesion marmosets", "experiment": "Disability reversal score in MPTP-lesion marmosets, PK/PD modelling", "type": "in vivo, marmoset", "details": "MPTP-treated marmosets, 0.1-3 mg/kg, Emax PK/PD modelling", "method": "Marmosets received several MPTP regimens (single MPTP regimen: 2 mg/kg, s.c., per day for 3 consecutive days) before the marmosets were used for PK/PD measurements.\nIn the absence of any striatal occupancy data in marmoset to relate plasma concentration needed for EC80 A2A occupancy for human dose projection, a daily dose range of 3-24 mg was established based on predicted EC50-80 plasma concentrations of rat striatal occupancy and marmoset disability reversal score."}, "[3]": {"experiment": "Safety and tolerability study, adverse events (Parts A, B, C)", "procedure": "The study was conducted in three parts: Parts A, B, and C.\nParts A and B were single-dose escalations to determine the safety and tolerability in young healthy men, and in elderly men and women, respectively. Three doses (Cohorts A1 to A3) were tested in healthy young men: 1 mg (N=6), 5 mg (N=6), and 10 mg (N=5); placebo (N=8, total of the three cohorts). […] Two doses (Cohorts B1 and B2) were tested in healthy elderly men and women: 5 mg (N=9 men/4 women), 10 mg (N=4 men/4 women); placebo (N=6 men/4 women, total of the three cohorts). […] A washout period of at least 7 days separated each dose administration."}, "A1 receptor [4]": {"molecular_target": "T2, A1 receptor (Rattus norvegicus, UniProt P25099)", "T2 sequence (P25099 1-326)": "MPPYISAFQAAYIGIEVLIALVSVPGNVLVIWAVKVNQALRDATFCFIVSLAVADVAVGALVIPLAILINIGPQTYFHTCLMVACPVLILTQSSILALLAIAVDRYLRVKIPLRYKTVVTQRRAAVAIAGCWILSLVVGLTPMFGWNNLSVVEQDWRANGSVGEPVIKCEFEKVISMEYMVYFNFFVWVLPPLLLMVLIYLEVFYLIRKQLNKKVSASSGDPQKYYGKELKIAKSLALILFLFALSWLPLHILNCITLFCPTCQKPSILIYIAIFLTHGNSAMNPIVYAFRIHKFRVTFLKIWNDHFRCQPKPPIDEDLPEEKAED", "experiment": "Adenosine receptor binding affinity, rat A1"}, "A3": {"molecular_target": "T3, A3 (Homo sapiens, UniProt P0DMS8)", "T3 sequence (P0DMS8 1-318)": "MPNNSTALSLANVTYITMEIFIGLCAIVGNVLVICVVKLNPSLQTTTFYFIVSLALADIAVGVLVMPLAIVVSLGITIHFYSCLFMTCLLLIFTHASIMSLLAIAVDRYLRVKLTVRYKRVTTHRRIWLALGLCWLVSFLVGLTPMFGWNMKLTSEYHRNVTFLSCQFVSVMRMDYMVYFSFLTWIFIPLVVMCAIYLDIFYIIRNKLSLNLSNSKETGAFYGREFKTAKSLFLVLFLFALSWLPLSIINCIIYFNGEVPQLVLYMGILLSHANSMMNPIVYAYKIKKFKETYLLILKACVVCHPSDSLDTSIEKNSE", "experiment": "Adenosine receptor binding affinity, human A3"}, "A2B": {"molecular_target": "T4, A2B (Homo sapiens, UniProt P29275)", "T4 sequence (P29275 1-332)": "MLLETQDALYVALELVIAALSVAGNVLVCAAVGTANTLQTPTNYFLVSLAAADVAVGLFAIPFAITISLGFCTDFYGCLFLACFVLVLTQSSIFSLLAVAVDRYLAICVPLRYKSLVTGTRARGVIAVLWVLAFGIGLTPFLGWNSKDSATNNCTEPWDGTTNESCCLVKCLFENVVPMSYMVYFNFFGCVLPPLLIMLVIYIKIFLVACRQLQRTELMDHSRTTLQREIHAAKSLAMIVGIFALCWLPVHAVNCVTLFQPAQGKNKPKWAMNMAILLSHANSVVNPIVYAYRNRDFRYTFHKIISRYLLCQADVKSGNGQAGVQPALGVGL", "experiment": "Adenosine receptor binding affinity, human A2B"}, "A2A receptor [5]": {"molecular_target": "T1, A2A receptor", "experiment": "Adenosine receptor binding affinity, rat A2A"}, "A1 receptor [6]": {"molecular_target": "T5, A1 receptor (Mus musculus, UniProt Q60612)", "T5 sequence (Q60612 1-326)": "T2 sequence (P25099 1-326) with V151E, D155A, R157I, D316E, L319I, E325D", "experiment": "Adenosine receptor binding affinity, mouse A1"}, "[7]": {"details": "Part A, healthy young men, 1, 5 and 10 mg dose groups"}, "[8]": {"details": "Part B, healthy elderly, 5 and 10 mg dose groups"}, "[9]": {"details": "Part C, 5 mg on three occasions"}},
  "note": "Numbering of substitutions follows the chain as printed.",
  "data": [
    {"smiles": "Cc1ccc(C(=O)Nc2nc(-c3ccco3)c(C(=O)C3CCOCC3)s2)cn1", "note": "[Compound 504]", "values": [
      {"measurement": "affinity for other receptors, ion channels and transporters", "setting": "[1]; DA, 5-HT, Ach, GABA, Glu, opiates, cannabinoid, calcium, potassium channels, transporters", "result": "Little or no affinity"},
      {"measurement": "inhibition of binding", "setting": "[1]; at 10 μM, any of the 57 counter-screen targets", "result": "Less than 50%"},
      {"measurement": "reversal of CGS-induced hypolocomotion", "setting": "A2A receptor [2]; 0.1 mg/kg oral", "result": "completely reversed"},
      {"measurement": "reversal of CGS-hypolocomotion (distance travelled, rearing, ambulatory episodes)", "setting": "A2A receptor [2]; 0.06 and 0.1 mg/kg doses", "result": "significantly reversed"},
      {"measurement": "ED50", "setting": "A2A receptor [2]; rat, po, read-out: ED50 for antagonism of the CGS-hypolocomotion", "result": "~0.06", "unit": "mg/kg"},
      {"measurement": "EC80 plasma concentration for disability reversal score", "setting": "MPTP-lesion marmosets", "result": 0.175, "unit": "µg/mL"},
      {"measurement": "insomnia", "setting": "[3]; Part A, 1 mg group", "result": "not reported"},
      {"measurement": "subjects reporting insomnia", "setting": "[3]; Part A, 5 mg group (N=6)", "result": 4, "unit": "subjects"},
      {"measurement": "subjects reporting insomnia", "setting": "[3]; Part A, 10 mg group (N=5)", "result": 5, "unit": "subjects"},
      {"measurement": "number of AEs", "setting": "[3]; [7]", "result": 36},
      {"measurement": "subjects with AEs", "setting": "[3]; [7]", "result": "13 of the 17"},
      {"measurement": "number of severe adverse events", "setting": "[3]; Part B, 10 mg group", "result": 5},
      {"measurement": "subjects with severe adverse events", "setting": "[3]; Part B, 10 mg group", "result": "Three"},
      {"measurement": "dose considered to approach the maximum tolerated dose", "setting": "[3]; Part B, elderly subjects", "result": "~10", "unit": "mg"},
      {"measurement": "number of AEs", "setting": "[3]; [8]", "result": 53},
      {"measurement": "subjects with AEs", "setting": "[3]; [8]", "result": "16 of the 21"},
      {"measurement": "events of mild insomnia", "setting": "[3]; Part C", "result": 12},
      {"measurement": "events of moderate insomnia", "setting": "[3]; Part C", "result": 2},
      {"measurement": "number of moderate AEs", "setting": "[3]; Part C", "result": 15},
      {"measurement": "number of severe AEs", "setting": "[3]; Part C", "result": 3},
      {"measurement": "number of AEs", "setting": "[3]; [9]", "result": 90},
      {"measurement": "subjects with AEs", "setting": "[3]; [9]", "result": "11 of the 12"},
      {"measurement": "safety and tolerability", "setting": "[3]; Part C, 5 mg single doses, fed and fasting states", "result": "safe and tolerated"},
      {"measurement": "maximal tolerated dosage", "setting": "[3]; single dose, insomnia limiting", "result": 10, "unit": "mg"},
      {"measurement": "Ki", "setting": "A1 receptor [4]", "result": "50.7 ± 3.18", "unit": "nM"},
      {"measurement": "Ki", "setting": "A3", "result": "428 ± 72.5", "unit": "nM"},
      {"measurement": "Ki", "setting": "A2B", "result": "33.8 ± 5.91", "unit": "nM"},
      {"measurement": "Ki", "setting": "A2A receptor [5]", "result": "0.1 ± 0.0072", "unit": "nM"},
      {"measurement": "Ki", "setting": "A1 receptor [6]", "result": "31.1 ± 1.09", "unit": "nM"}
    ]}
  ]
}
